{"source": "patent US8084261B2", "about": "“Method for predicting responsiveness to a pharmaceutical therapy for obesity” (priority 2007, dated 2011)", "key": {"TRL V6": {"system": "TRL V6", "assay": "Cross therapeutic target rat study: reduction of circulating TRL V6 concentration after an acute dose (NMR LipoProfile)", "type": "in vivo, DIO-LE rats", "settings": "for Reduction in TRL V6 Response T1-(ie 2 hrs) / Reduction in TRL V6 Response T2-(ie 5 hrs) / Reduction in TRL V6 Response T3-(ie 18 hrs): DIO-LE rats on high fat chow, acute dose as in the Dose column; for Reduction in TRL V6 Response T1-(ie 2 hrs): T1 (ie 2 hrs) post dose; for Reduction in TRL V6 Response T2-(ie 5 hrs): T2 (ie 5 hrs) post dose; for Reduction in TRL V6 Response T3-(ie 18 hrs): T3 (ie 18 hrs) post dose; for reduction of circulating concentration of TRL V6 / time by which TRL V6 plasma concentration returns to baseline / reduction of circulating TRL V6 concentration: SNDRI 3 mg/kg; for time by which TRL V6 plasma concentration returns to baseline: post dose", "protocol": "As a typical example, whole blood samples are collected into 2 ml EDTA blood collection tubes, inverted several times to mix well, and placed on ice. The samples are then centrifuged at approximately 3000 rpm for 10-15 minutes at 4° C. Upon completion of centrifugation, the tube is placed on ice and the plasma is drawn off The plasma is place into a polypropylene tube and kept at 4° C. until analysis. Samples may be analyzed at any time up to about 4 days after collection. Samples are analyzed for TRL V6 response, as for example by NMR plasma lipoprotein analysis, as for example, the NMR LipoProfile®, the NMR LipoProfile®-II or the NMR LipoProfile®-III lipoprotein tests provided by LipoScience, Inc. of Raleigh, N.C.\nThe ability of investigational weight loss pharmaceutical agents to reduce the TRL V6 concentration in rats is shown with three compounds targeting different mechanisms of action including a known potent and selective 5-HT2C receptor agonist, a known potent and selective CB-1 receptor antagonist/inverse agonist, and a potent SNDRI (sibutramine) Each of these compounds are known to induce weight loss in rats and thus the biomarker of reduction in TRL V6 concentration correlates to the investigational weight loss pharmaceutical agents' ability to induce weight loss. Conversely, an opiate antagonist, (naltrexone) which is known to be ineffective in inducing weight loss in rats or in overweight and obese human subjects (Malcolm R et al., Int. J. Obes. 1985; 9(5):347-53), is shown to not reduce the TRL V6 concentration in rats, again correlating the biomarker of reduction in TRL V6 concentration to the investigational weight loss pharmaceutical agents' ability to induce weight loss.\nDIO-LE rats maintained on a high fat chow are administered either a vehicle dose or an acute dose of test compound. At specified time points post dose, animals are sacrificed and blood is collected in blood sample tubes containing EDTA and processed essentially as described above. Samples are analyzed by NMR LipoProfile® lipoprotein sub-particle test with report of all particle subtypes (specifically the TRL V6 concentration or particle number)."}, "[1]": {"system": "large triglyceride rich lipoprotein subclasses", "assay": "Human study with sibutramine: TRL response (AUC 5-11 hr) to fat load versus placebo, NMR LipoProfile", "type": "in vivo", "protocol": "Note that where TRL V6 response can be equated with the response of a combination of subtypes, it is because the magnitude of the change in signal, which is due to the change of TRL V6 signal, is sufficiently large compared to the base line signal, to be a significant difference (i.e. the signal from TRL V6 in the base line signal dominates the combined signal so that a change in TRL V6 is reliably detected).\nA SNDRI (sibutramine) known to be able to induce weight loss in humans is tested to correlate its ability to reduce TRL V6 response plasma concentrations and V-TRL response in humans in an exploratory biomarker study employing a single-blind, crossover design, comparing sibutramine and placebo in hypertriglyceridemic and overweight and obese but otherwise healthy subjects.\nThree cohorts containing 6 subjects each, undergo three periods during the study. Subjects are fasted overnight and two fasting blood draws are obtained, followed by breakfast at approximately 07:00 hours. Placebo or sibutramine is administered at approximately 10:00 hours. Blood sampling is begun approximately 1 hr. after the start of breakfast and continues at hourly intervals for 7 hr., and then every 2 hr. for the next 10 hr. A lunch according to Example fat load 2 is served at approximately 12:00 hours (approximately 60 to 65 g of fat). No other food is permitted until 12 hr. post fat load administration. Subjects are released after the last blood sampling for a 4 to 8-day washout period before return for the second testing period of the study. After the washout period, subjects are again fasted overnight. The procedures are then repeated as in the first testing period of the study except that each subject crosses over to receive the alternate treatment, sibutramine or placebo. Blood samples are collected, processed and analyzed essentially as described in Example 1 above.\nTRL V6 responses and V-TRL responses are observed during the period from 5 to 11 hr. post fat load. […] In most subjects, the administration of sibutramine reduced the magnitude of the TRL V6 response and V-TRL response compared to their placebo-treated responses. Thus the reduction of the TRL V6 response and V-TRL response induced by the SNDRI correlates with the SNDRI known ability to induce weight loss in humans."}, "[2]": {"settings": "rats, 2 hr. post dose, 5-HT2C agonist 10 mg/kg, naltrexone 10 mg/kg oral"}, "[3]": {"settings": "rats, 5-HT2C agonist 10 mg/kg, CB-1 antagonist 0.3 mg/kg, naltrexone 10 mg/kg oral"}, "[4]": {"settings": "rats, 5 hr. post dose, CB-1 antagonist 0.3 mg/kg"}, "[5]": {"settings": "AUC 5-11 hr. time points from lipid load"}, "[6]": {"settings": "AUC 5-11 hr. time points from lipid load, chylomicrons"}, "[7]": {"settings": "versus placebo, 5-11 hr. post fat load"}}}
{"compound": "O=C1CC[C@@]2(O)[C@H]3Cc4ccc(O)c5c4[C@@]2(CCN3CC2CC2)[C@H]1O5", "note": "[Naltrexone, naltrexone]", "values": [{"measurement": "Reduction in TRL V6 Response T1-(ie 2 hrs)", "setting": "TRL V6", "result": 30, "unit": "%"}, {"measurement": "Reduction in TRL V6 Response T2-(ie 5 hrs)", "setting": "TRL V6", "result": 0, "unit": "%"}, {"measurement": "Reduction in TRL V6 Response T3-(ie 18 hrs)", "setting": "TRL V6", "result": 0, "unit": "%"}, {"measurement": "TRL V6 level at 18 hr. post dose (in words)", "setting": "TRL V6; rats, 10 mg/kg oral, 18 hr. post dose", "result": "unchanged"}, {"measurement": "effect on circulating TRL V6 levels (in words)", "setting": "TRL V6; rats, 10 mg/kg orally administrated dose", "result": "minimal effect"}, {"measurement": "reduction of circulating concentration of TRL V6", "setting": "TRL V6; [2]", "result": 30, "unit": "%"}, {"measurement": "time by which TRL V6 plasma concentration returns to baseline", "setting": "TRL V6; [3]", "result": 5, "unit": "h"}]}
{"compound": "CC(C)CC(N(C)C)C1(c2ccc(Cl)cc2)CCC1", "note": "(stereo not drawn) [Sibutramine, sibutramine]", "values": [{"measurement": "Reduction in TRL V6 Response T1-(ie 2 hrs)", "setting": "TRL V6", "result": 78, "unit": "%"}, {"measurement": "Reduction in TRL V6 Response T2-(ie 5 hrs)", "setting": "TRL V6", "result": 78, "unit": "%"}, {"measurement": "Reduction in TRL V6 Response T3-(ie 18 hrs)", "setting": "TRL V6", "result": 0, "unit": "%"}, {"measurement": "reduction of circulating concentration of TRL V6", "setting": "TRL V6; [2]", "result": "about 78%"}, {"measurement": "reduction of circulating TRL V6 concentration", "setting": "TRL V6; rats, 2 hr. post dose", "result": "about 78%"}, {"measurement": "reduction of circulating TRL V6 concentration", "setting": "TRL V6; [4]", "result": "about 78%"}, {"measurement": "reduction of circulating concentration of TRL V6", "setting": "TRL V6; [4]", "result": "about 78%"}, {"measurement": "time by which TRL V6 plasma concentration returns to baseline", "setting": "TRL V6; [3]", "result": "about 18 hr"}, {"measurement": "decrease in the TRL V6 response versus placebo", "setting": "[1]; AUC 5-11 hr. post fat load, mixed effects model, average of treated arms", "result": "about 28%"}, {"measurement": "Geometric LS Mean of AUC, analyte TRL V5", "setting": "[1]; [5]", "result": 222.34}, {"measurement": "Geometric LS Mean of AUC, analyte TRL V6", "setting": "[1]; [5]", "result": 119.35}, {"measurement": "Geometric LS Mean of AUC, analytes TRL V6 + Chy", "setting": "[1]; [5]", "result": 205.0}, {"measurement": "Geometric LS Mean of AUC, analytes TRL V6 + TRL V5", "setting": "[1]; [5]", "result": 364.08}, {"measurement": "Geometric LS Mean of AUC, analytes TRL V6 + V5 + Chy", "setting": "[1]; [5]", "result": 458.04}, {"measurement": "Sibutramine/Placebo Ratio of AUC, analyte TRL V5", "setting": "[1]; [5]", "result": 1.10}, {"measurement": "Sibutramine/Placebo Ratio of AUC, analyte TRL V6", "setting": "[1]; [5]", "result": 0.73}, {"measurement": "Sibutramine/Placebo Ratio of AUC, analytes TRL V6 + Chy", "setting": "[1]; [5]", "result": 0.81}, {"measurement": "Sibutramine/Placebo Ratio of AUC, analytes TRL V6 + TRL V5", "setting": "[1]; [5]", "result": 0.88}, {"measurement": "Sibutramine/Placebo Ratio of AUC, analytes TRL V6 + V5 + Chy", "setting": "[1]; [5]", "result": 0.89}, {"measurement": "Geometric LS Mean of AUC, analyte Chy", "setting": "[1]; [6]", "result": 81.11}, {"measurement": "Sibutramine/Placebo Ratio of AUC, analyte Chy", "setting": "[1]; [6]", "result": 0.98}, {"measurement": "change in mean V-TRL response (in words)", "setting": "[1]; [7]", "result": "statistically significant decrease"}, {"measurement": "change in plasma concentrations of TRL V1, V2, V3, V4, or V5 subtypes (in words)", "setting": "[1]; [7]", "result": "does not show a significant change"}]}
